Measurements reported in ChEMBL document CHEMBL4316623, “Phosphonodiamidate prodrugs of N-alkoxy analogs of a fosmidomycin surrogate as antimalarial and antitubercular agents” (Bioorg Med Chem Lett, 2019).
pIC50: −log10 of the molar value.

Assays:
[1] = test system: Mycobacterium tuberculosis; assay: Antitubercular activity against Mycobacterium tuberculosis H37Ra ATCC 25177 harboring lux gene measured after 7 days by luminometric method; type: functional, organism-based; settings: H37Ra ATCC 25177, 168 h
[2] = Selectivity index, ratio of CC50 for human MRC5 cells to IC50 for Mycobacterium tuberculosis H37Ra ATCC 25177 harboring lux gene; type: toxicity; settings: read-out: Ratio CC50/IC50

Row | SMILES | pIC50 [1] | selectivity ratio [2]
1 | CCOC(=O)[C@H](CC(C)C)NP(=O)(CCCC(=O)N(C)OCc1ccc(Cl)cc1)N[C@@H](CC(C)C)C(=O)OCC | 4.31 | 0.37
2 | CCOC(=O)[C@H](CC(C)C)NP(=O)(CCCC(=O)N(C)O)N[C@@H](CC(C)C)C(=O)OCC | 4.53 | > 2.2
3 | CCOC(=O)[C@H](CC(C)C)NP(=O)(CCCC(=O)N(C)OCc1ccc2ccccc2c1)N[C@@H](CC(C)C)C(=O)OCC | 4.32 | 0.11
4 | CCOC(=O)[C@H](CC(C)C)NP(=O)(CCCC(=O)N(C)OCCCc1ccccc1)N[C@@H](CC(C)C)C(=O)OCC | < 4.19 | –
5 | CCOC(=O)[C@H](CC(C)C)NP(=O)(CCCC(=O)N(C)OCc1ccccc1)N[C@@H](CC(C)C)C(=O)OCC | < 4.19 | –
6 | CCOC(=O)[C@H](CC(C)C)NP(=O)(CCCC(=O)N(C)OCc1ccc(C(C)C)cc1)N[C@@H](CC(C)C)C(=O)OCC | 4.31 | 0.15
7 | NNC(=O)c1ccncc1 [ISONIAZID] | 6.68 | –
8 | CCOC(=O)[C@H](CC(C)C)NP(=O)(CCCC(=O)N(C)OCCCCc1ccccc1)N[C@@H](CC(C)C)C(=O)OCC | 4.30 | 0.14
9 | CCOC(=O)[C@H](CC(C)C)NP(=O)(CCCC(=O)N(C)OCc1ccc(-c2ccccc2)cc1)N[C@@H](CC(C)C)C(=O)OCC | 4.45 | 0.17
